Test system: Stress protein genes
Assay: DNA chip mRNA expression in yeast, stress protein genes (Table 6)
Type: cell-based, Saccharomyces cerevisiae S288C
In short: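 Values are treated/untreated fluorescence ratios from a whole-genome yeast DNA chip hybridized over 12 hours at 65° C with Cy3- or Cy5-labelled cDNA from poly(A) mRNA. Log-phase S288C yeast in YPD at 25° C had received a single toxic chemical for two hours, dosed to slow growth without killing.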

Measured: The level of expressed mRNA in the presence of chemical substance/The level of expressed mRNA in the absence of chemical substance

O=[N+]([O-])c1cc[n+]([O-])c2ccccc12 [(5), 4-nitroquinolin-N-oxide]
0.7: yeast gene YBR126C | yeast gene YDL022W | yeast gene YDR436W | yeast gene YDR519W | yeast gene YIL033C | yeast gene YIR038C | yeast gene YLL024C
1.1: yeast gene YAL015C | yeast gene YBL075C | yeast gene YBR067C | yeast gene YDR033W | yeast gene YER042W | yeast gene YER103W | yeast gene YFL020C | yeast gene YGL181W | yeast gene YHL028W | yeast gene YHR104W | yeast gene YIL011W | yeast gene YJL165C | yeast gene YKL164C | yeast gene YLR259C | yeast gene YMR173W
1.2: yeast gene YAL005C | yeast gene YBR072W | yeast gene YGL115W | yeast gene YJL128C | yeast gene YJR090C | yeast gene YNR076W | yeast gene YOR010C | yeast gene YPL059W | yeast gene YPL106C
0.5: yeast gene YJR045C
1.5: yeast gene YCL035C | yeast gene YDR098C
1.6: yeast gene YCR083W | yeast gene YLR006C | yeast gene YMR021C
0.8: yeast gene YBR054W | yeast gene YBR169C | yeast gene YCR060W | yeast gene YDR077W | yeast gene YDR155C | yeast gene YER057C | yeast gene YKL210W | yeast gene YNL241C | yeast gene YOR009W | yeast gene YPL140C | yeast gene YPR026W
0.4: yeast gene YEL030W
1.4: yeast gene YBR044C | yeast gene YER125W | yeast gene YFR052W | yeast gene YJL158C | yeast gene YKL161C | yeast gene YML070W | yeast gene YOR008C | yeast gene YOR208W
1.0: yeast gene YBL093C | yeast gene YFL014W | yeast gene YGR088W | yeast gene YJL159W | yeast gene YKR053C | yeast gene YML007W | yeast gene YOR027W | yeast gene YPR005C
1.7: yeast gene YGL073W
0.6: yeast gene YDL025C | yeast gene YDR293C | yeast gene YIR037W | yeast gene YKL163W
1.8: yeast gene YHR030C
1.3: yeast gene YDR258C | yeast gene YFL016C | yeast gene YHR057C | yeast gene YLR109W | yeast gene YMR186W | yeast gene YNL160W | yeast gene YPL194W | yeast gene YPL240C
0.9: yeast gene YCR021C | yeast gene YDR513W | yeast gene YEL039C | yeast gene YHL046C | yeast gene YLL026W | yeast gene YLL039C | yeast gene YLL060C | yeast gene YNL064C | yeast gene YOL064C | yeast gene YOL161C | yeast gene YPL223C

— patent US8192962B2, “Processes for detecting toxic substances” (Daikin Industries, Ltd., priority 2001, dated 2012)
